Reference: the NIST ThermoML archive (doi:10.1021/acs.jced.7b01053)
Values joined by “and” are separate entries in the source; they are usually repeats but may differ in a detail not shown here. Equal values may be shown once.

Test: mn = molality of the nth substance listed, in mol/kg
Details: 293 K, 100 kPa, Liquid, Alternating current cell with electrodes

CC(=O)[O-].OCC[NH2+]CCO [2,2'-azanediylbis(ethanol) acetate] + O
Details | electrical conductivity
m1 = 0.02102 | 0.103 S/m
m1 = 0.02229 | 0.092 S/m
m1 = 0.0413 | 0.189 S/m
m1 = 0.04556 | 0.185 S/m
m1 = 0.06489 | 0.299 S/m
m1 = 0.06982 | 0.299 S/m
m1 = 0.08642 | 0.38 S/m
m1 = 0.0929 | 0.387 S/m
m1 = 0.11 | 0.471 S/m
m1 = 0.1182 | 0.481 S/m
m1 = 0.133 | 0.551 S/m
m1 = 0.1442 | 0.574 S/m
m1 = 0.1566 | 0.637 S/m
m1 = 0.17 | 0.664 S/m
m1 = 0.1784 | 0.715 S/m
m1 = 0.1932 | 0.749 S/m
m1 = 0.2015 | 0.79 S/m
m1 = 0.2176 | 0.822 S/m
m1 = 0.2233 | 0.87 S/m
m1 = 0.2404 | 0.892 S/m
m1 = 0.2459 | 0.947 S/m
m1 = 0.2633 | 0.966 S/m
m1 = 0.2671 | 1.01 S/m
m1 = 0.2853 | 1.03 S/m
m1 = 0.2885 | 1.08 S/m
m1 = 0.3076 | 1.11 S/m
m1 = 0.3083 | 1.14 S/m
m1 = 0.3285 | 1.16 S/m and 1.2 S/m
m1 = 0.3471 | 1.26 S/m
m1 = 0.3495 | 1.22 S/m
m1 = 0.3658 | 1.32 S/m
m1 = 0.3689 | 1.27 S/m
m1 = 0.3832 | 1.37 S/m
m1 = 0.3886 | 1.33 S/m
m1 = 0.4004 | 1.42 S/m
m1 = 0.4068 | 1.38 S/m
m1 = 0.4163 | 1.46 S/m
m1 = 0.4248 | 1.43 S/m
m1 = 0.4322 | 1.51 S/m
m1 = 0.4417 | 1.47 S/m
m1 = 0.4472 | 1.55 S/m
m1 = 0.4583 | 1.51 S/m
m1 = 0.4617 | 1.59 S/m
m1 = 0.4738 | 1.56 S/m
m1 = 0.4751 | 1.64 S/m
m1 = 0.4881 | 1.68 S/m
m1 = 0.489 | 1.61 S/m
m1 = 0.5005 | 1.73 S/m
m1 = 0.5032 | 1.65 S/m
m1 = 0.5129 | 1.76 S/m
m1 = 0.5172 | 1.68 S/m
m1 = 0.5243 | 1.8 S/m
m1 = 0.5302 | 1.7 S/m
m1 = 0.5355 | 1.83 S/m
m1 = 0.5436 | 1.73 S/m
m1 = 0.5561 | 1.76 S/m

CCCC(=O)[O-].[NH3+]CCO [2-hydroxy ethylammonium butanoate] + O
Details | electrical conductivity [S/m]
m1 = 0.01855 | 0.092
m1 = 0.0207 | 0.107
m1 = 0.03507 | 0.163
m1 = 0.0415 | 0.196
m1 = 0.05678 | 0.264
m1 = 0.06247 | 0.295
m1 = 0.07651 | 0.338
m1 = 0.08283 | 0.372
m1 = 0.09713 | 0.41
m1 = 0.1049 | 0.449
m1 = 0.119 | 0.485
m1 = 0.1258 | 0.511
m1 = 0.1407 | 0.563
m1 = 0.1476 | 0.585
m1 = 0.1628 | 0.637
m1 = 0.1681 | 0.649
m1 = 0.184 | 0.709
m1 = 0.1888 | 0.711
m1 = 0.2055 | 0.77
m1 = 0.2087 | 0.764
m1 = 0.2251 | 0.834
m1 = 0.2284 | 0.81
m1 = 0.2448 | 0.894
m1 = 0.2469 | 0.857
m1 = 0.2626 | 0.946
m1 = 0.2654 | 0.9
m1 = 0.2809 | 0.994
m1 = 0.2825 | 0.94
m1 = 0.298 | 1.04
m1 = 0.3001 | 0.982
m1 = 0.3153 | 1.09
m1 = 0.3165 | 1.02
m1 = 0.331 | 1.12
m1 = 0.3327 | 1.06
m1 = 0.3468 | 1.17
m1 = 0.3475 | 1.09
m1 = 0.3613 | 1.2
m1 = 0.3622 | 1.12
m1 = 0.3758 | 1.15
m1 = 0.3759 | 1.23
m1 = 0.3892 | 1.27
m1 = 0.3894 | 1.18
m1 = 0.4021 | 1.2
m1 = 0.4023 | 1.3
m1 = 0.4144 | 1.23
m1 = 0.4145 | 1.32
m1 = 0.4231 | 1.34
m1 = 0.4259 | 1.25
m1 = 0.4344 | 1.36
m1 = 0.4374 | 1.27
m1 = 0.4449 | 1.39
m1 = 0.448 | 1.29
m1 = 0.4554 | 1.41
m1 = 0.4584 | 1.32
m1 = 0.4651 | 1.43
m1 = 0.4681 | 1.33
m1 = 0.4746 | 1.45
m1 = 0.4775 | 1.35
m1 = 0.4835 | 1.46
m1 = 0.4864 | 1.38
m1 = 0.4922 | 1.48
m1 = 0.495 | 1.4
m1 = 0.5005 | 1.5
m1 = 0.5032 | 1.41
m1 = 0.5085 | 1.52
m1 = 0.516 | 1.54
m1 = 0.5231 | 1.55
